Source: patent US4002623A, “Anti-inflammatory 1-[3-(dialkylamino)propyl]-2-acylaminobenzimidazoles and 2-acylamino-3-[3-(dialkylamino)-propyl]imidazo[4,5-b]pyridines” (Pfizer Inc., priority 1974, dated 1977)
Like-named read-outs stand apart in the source and are kept apart here.

Assay: adjuvant arthritis screen (Walz et al.), swelling of the non-injected left hind foot on Day 16
Format: in vivo, male inbred Lewis rats
Conditions: Rattus norvegicus, 384 h, daily day -1 through day 15, read-out: Activity Percent Inhibition; for inhibition in vivo at 20 mg/kg: 20 mg./kg. po
Source text: The adjuvant arthritis test described by Walz et al., Ann. Rheum. Dis., 30, 303 (1971) was selected as the method of choice for the determination of the extent of which the novel compounds of the present invention are therapeutically effective as anti-inflammatory agents. Adjuvant arthritis is a crippling deformity in rats resulting from diffuse connective tissue involvement. It is considered by some authorities to be the best available experimental animal model of human rheumatoid arthritis because of its strong clinical and pathological similarities to the human disease and because it can be effectively treated with known anti-arthritic drugs. In this test, lesions resembling those of human rheumatoid arthritis are induced by the injection of complete Freund's adjuvant into one hind leg of a rat. A vigorous inflammatory response occurs in the injected hind leg and reaches its greatest size in about four days. This primary response is followed by the development of a second inflammatory response, appearing about 12-16 days post-injection, that occurs in the uninjected hind leg. While the compounds of the invention are capable of inhibiting the degree of inflammation in both legs, the inhibition of swelling in the uninjected leg at 16 days is considered to be the more meaningful measure of antiarthritic activity.
The adjuvant arthritis screen as described by Walz et al. (Ann. Rheum. Dis., 30: 303 (1971), was used to evaluate the above prepared compounds.
The screen is conducted using male inbred Lewis rats weighing approximately 250 gm. The animals are dosed with drug beginning on day- 1 and continuing daily through day 15. On Day 0, the subplanter surface of the right hind paw is injected with 0.1cc of a 1% suspension of Mycobacterium butyricum (Freunds adjuvant) in Primol (Esso). The swelling of the non-injected left hind foot on Day 16, resulting from immune response to adjuvant, was determined for dosed animals and controls. The foot volume is measured by immersing the paw to the anatomical hairline into a mercury reservoir which is connected to a Statham pressure transducer and a recording device. The results are expressed as % inhibition calculated according to the following equation: [formula] The results obtained are as follows for [drawing 22] where Z is --N(CH3)2 and X is carbon: […]

## Cc1cc2nc(NC(=O)c3cccc(C(F)(F)F)c3)n(CCCN3CCN(C)CC3)c2cc1C
  inhibition in vivo at 20 mg/kg: 22%

## CN(C)CCCn1c(NC(=O)c2cccc(C(F)(F)F)c2)nc2ccccc21
33 mg./kg. ip
  inhibition in vivo at 33 mg/kg: 21%

## CN1CCN(CCCn2c(NC(=O)c3cccc(C(F)(F)F)c3)nc3cc(S(=O)(=O)N(C)C)ccc32)CC1
  inhibition in vivo at 20 mg/kg: 22%

## CN1CCN(CCCn2c(NC(=O)c3ccc(Cl)c(Cl)c3)nc3cc(S(=O)(=O)N(C)C)ccc32)CC1
  inhibition in vivo at 20 mg/kg: 31%

## CN1CCN(CCCn2c(NC(=O)c3cc(C(F)(F)F)cc(C(F)(F)F)c3)nc3ccccc32)CC1
  inhibition in vivo at 20 mg/kg: 32%

## Cc1cc2nc(NC(=O)c3ccc(C(F)(F)F)cc3)n(CCCN3CCN(C)CC3)c2cc1C
  inhibition in vivo at 20 mg/kg: 29%

## CN1CCN(CCCn2c(NC(=O)c3ccc(C(F)(F)F)cc3)nc3cc(S(=O)(=O)N(C)C)ccc32)CC1
  inhibition in vivo at 20 mg/kg: 34%

## CN1CCN(CCCn2c(NC(=O)C34CC5CC(CC(C5)C3)C4)nc3ccccc32)CC1 [1-Adamantyl; H; H; drawing 24]
33 mg./kg. ip
  inhibition in vivo at 33 mg/kg: 28%

## CN(C)CCCn1c(NC(=O)c2ccccc2Cl)nc2ccccc21 [2-Chlorophenyl; H; H; Z = N(CH3)2]
33 mg./kg. ip
  inhibition in vivo at 33 mg/kg: 15%

## CN(C)CCCn1c(NC(=O)C=Cc2ccccc2Cl)nc2ccccc21 [2-Chlorostyryl; H; H; Z = N(CH3)2]
33 mg./kg. ip
  inhibition in vivo at 33 mg/kg: 45%

## O=C(Nc1nc2ccccc2n1CCCN1CCOCC1)c1ccccc1F [2-Fluorophenyl; H; H; drawing 23]
33 mg./kg. ip
  inhibition in vivo at 33 mg/kg: 6%

## CN1CCN(CCCn2c(NC(=O)c3ccco3)nc3ccccc32)CC1 [2-Furyl; H; H; drawing 24, 1-[3-(4-methyl-1-piperazinyl)propyl]-2-(2-furamido)-benzimidazole]
  inhibition in vivo at 20 mg/kg: 43%

## Cc1cc2nc(NC(=O)c3ccc(Cl)c(Cl)c3)n(CCCN3CCN(C)CC3)c2cc1C [3,4-Dichlorophenyl; CH3; CH3; drawing 24]
  inhibition in vivo at 20 mg/kg: 18%

## Cc1ccc2nc(NC(=O)c3ccc(Cl)c(Cl)c3)n(CCCN3CCN(C)CC3)c2c1 [3,4-Dichlorophenyl; H; CH3; drawing 24]
  inhibition in vivo at 20 mg/kg: 22%

## CN(C)CCCn1c(NC(=O)c2ccc(Cl)c(Cl)c2)nc2ccccc21 [3,4-Dichlorophenyl; H; H; Z = N(CH3)2]
10 mg./kg. po
  inhibition in vivo at 10 mg/kg: 13%
33 mg./kg. ip
  inhibition in vivo at 33 mg/kg: 67%

## CN1CCN(CCCn2c(NC(=O)c3ccc(Cl)c(Cl)c3)nc3ccccc32)CC1 [3,4-Dichlorophenyl; H; H; drawing 24, 1-[3-(4-methyl-1-piperazinyl)propyl]-2-(3,4-dichlorobenzamido)benzimidazole]
10 mg./kg. po
  inhibition in vivo at 10 mg/kg: 32%
33 mg./kg. ip
  inhibition in vivo at 33 mg/kg: 61%

## CN1CCN(CCCn2c(NC(=O)c3ccc(Cl)c(Cl)c3)nc3cccnc32)CC1 [3,4-Dichlorophenyl; H; H; drawing 25, 2-(3,4-dichlorobenzamido)-3-[4-(methyl-1-piperazino)-propyl]imidazo[4,5-b]pyridine]
10 mg./kg. po
  inhibition in vivo at 10 mg/kg: 27%
  inhibition in vivo at 20 mg/kg: 41%

## O=C(Nc1nc2ccccc2n1CCCN1CCCCC1)c1ccc(Cl)c(Cl)c1 [3,4-Dichlorophenyl; H; H; drawing 26]
33 mg./kg. ip
  inhibition in vivo at 33 mg/kg: 25%

## O=C(Nc1nc2ccccc2n1CCCN1CCN(Cc2ccccc2)CC1)c1ccc(Cl)c(Cl)c1 [3,4-Dichlorophenyl; H; H; drawing 27]
10 mg./kg. ip
  inhibition in vivo at 10 mg/kg: 19%

## COc1ccc2c(c1)nc(NC(=O)c1ccc(Cl)c(Cl)c1)n2CCCN1CCN(C)CC1 [3,4-Dichlorophenyl; OCH3; H; drawing 24, 1-[3-(4-methyl-1-piperazinyl)propyl]-2-(3,4-dichlorobenzamido)-5-methoxybenzimidazole]
10 mg./kg. po
  inhibition in vivo at 10 mg/kg: 35%

## CN1CCN(CCCn2c(NC(=O)c3cc(Cl)cc(Cl)c3)nc3ccccc32)CC1 [3,5-Dichlorophenyl; H; H; drawing 24]
33 mg./kg. ip
  inhibition in vivo at 33 mg/kg: 31%

## CN1CCN(CCCn2c(NC(=O)c3cccc(Cl)c3)nc3cc(C(F)(F)F)ccc32)CC1 [3-Chlorophenyl; CF3; H; drawing 24, 1-[3-(4-methyl-1-piperazinyl)propyl]-2-(3-chlorobenzamido)-5-trifluoromethylbenzimidazole]
  inhibition in vivo at 20 mg/kg: 45%
33 mg./kg. ip
  inhibition in vivo at 33 mg/kg: 73%

## Cc1ccc2c(c1)nc(NC(=O)c1cccc(Cl)c1)n2CCCN1CCN(C)CC1 [3-Chlorophenyl; CH3; H; drawing 24]
  inhibition in vivo at 20 mg/kg: 29%

## CN1CCN(CCCn2c(NC(=O)c3cccc(Cl)c3)nc3cc(Cl)c(Cl)cc32)CC1 [3-Chlorophenyl; Cl; Cl; drawing 24]
33 mg./kg. ip
  inhibition in vivo at 33 mg/kg: 66%

## CN1CCN(CCCn2c(NC(=O)c3cccc(Cl)c3)nc3cc(Cl)ccc32)CC1 [3-Chlorophenyl; Cl; H; drawing 24]
10 mg./kg. po
  inhibition in vivo at 10 mg/kg: -5%
33 mg./kg. ip
  inhibition in vivo at 33 mg/kg: 66%

## Cc1ccc2nc(NC(=O)c3cccc(Cl)c3)n(CCCN3CCN(C)CC3)c2c1 [3-Chlorophenyl; H; CH3; drawing 24]
10 mg./kg. po
  inhibition in vivo at 10 mg/kg: -5%
33 mg./kg. ip
  inhibition in vivo at 33 mg/kg: 66%

## CN(C)CCCn1c(NC(=O)c2cccc(Cl)c2)nc2ccccc21 [3-Chlorophenyl; H; H; Z = N(CH3)2]
33 mg./kg. ip
  inhibition in vivo at 33 mg/kg: 33%

## O=C(Nc1nc2ccccc2n1CCCN1CCOCC1)c1cccc(Cl)c1 [3-Chlorophenyl; H; H; drawing 23, 1-[3-(N-morpholino)propyl]-2-(3-chlorobenzamido)benzimidazole]
100 mg./kg. po
  inhibition in vivo at 100 mg/kg: 32%

## CN1CCN(CCCn2c(NC(=O)c3cccc(Cl)c3)nc3ccccc32)CC1 [3-Chlorophenyl; H; H; drawing 24]
33 mg./kg. ip
  inhibition in vivo at 33 mg/kg: 46%

## CN1CCN(CCCn2c(NC(=O)c3cccc(Cl)c3)nc3cccnc32)CC1 [3-Chlorophenyl; H; H; drawing 25]
  inhibition in vivo at 20 mg/kg: 26%

## O=C(Nc1nc2ccccc2n1CCCN1CCCCC1)c1cccc(Cl)c1 [3-Chlorophenyl; H; H; drawing 26]
33 mg./kg. ip
  inhibition in vivo at 33 mg/kg: 34%

## COc1ccc2c(c1)nc(NC(=O)c1cccc(Cl)c1)n2CCCN1CCN(C)CC1 [3-Chlorophenyl; OCH3; H; drawing 24]
10 mg./kg. po
  inhibition in vivo at 10 mg/kg: -1%
33 mg./kg. ip
  inhibition in vivo at 33 mg/kg: 59%

## CN1CCN(CCCn2c(NC(=O)c3cccc(Cl)c3)nc3cc(S(=O)(=O)N(C)C)ccc32)CC1 [3-Chlorophenyl; SO2 N(CH3)2; H; drawing 24, 1-[3-(4-methyl-1-piperazinyl)propyl]-2-(3-chlorobenzamido)-5-(N,N-dimethylsulfonamido)benzimidazole]
10 mg./kg. po
  inhibition in vivo at 10 mg/kg: 35%
33 mg./kg. po
  inhibition in vivo at 33 mg/kg: 54%

## CN1CCN(CCCn2c(NC(=O)c3cccc(F)c3)nc3ccccc32)CC1 [3-Fluorophenyl; H; H; drawing 24]
33 mg./kg. ip
  inhibition in vivo at 33 mg/kg: 34%

## O=C(Nc1nc2ccccc2n1CCCN1CCCCC1)c1cccc(F)c1 [3-Fluorophenyl; H; H; drawing 26]
33 mg./kg. ip
  inhibition in vivo at 33 mg/kg: 27%

## COc1cccc(C(=O)Nc2nc3cc(C(F)(F)F)ccc3n2CCCN2CCN(C)CC2)c1 [3-Methoxyphenyl; CF3; H; drawing 24]
33 mg./kg. ip
  inhibition in vivo at 33 mg/kg: 46%

## COc1cccc(C(=O)Nc2nc3cc(C)ccc3n2CCCN2CCN(C)CC2)c1 [3-Methoxyphenyl; CH3; H; drawing 24, 1-[3-(4-methyl-1-piperazinyl)propyl]-2-(3-methoxybenzamido)-5-methylbenzimidazole]
  inhibition in vivo at 20 mg/kg: 37%

## COc1cccc(C(=O)Nc2nc3cc(Cl)ccc3n2CCCN2CCN(C)CC2)c1 [3-Methoxyphenyl; Cl; H; drawing 24]
33 mg./kg. ip
  inhibition in vivo at 33 mg/kg: 17%
